Measurements as given in patent US20120258980A1, “Antibacterial Agent for Drug-Resistant Bacteria, Method for Screening for Same, and Use of Same” (priority 2009, published 2012).
Converted amounts (≈) assume the structure as drawn. Read-outs that look alike come from different tables or passages of the source.

Experiments:
VRSA clinical isolates = conditions: based on NARSA, cited from earlier work
[1] = system: VISA clinical isolates of MRSA (VI-MRSA) and of MSSA (VI-MSSA); assay: microbe, parasite or virus in culture; format: cell-based, Staphylococcus aureus
How it was run: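 Strains were grown overnight at 37° C in TSB, adjusted in CAMHB to 0.3 absorbance at 578 nm and diluted 500-fold before equal-volume addition to compound dilutions.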

## CN[C@H](CC(C)C)C(=O)N[C@H]1C(=O)N[C@@H](CC(N)=O)C(=O)N[C@H]2C(=O)N[C@H]3C(=O)N[C@H](C(=O)N[C@H](C(=O)O)c4cc(O)cc(O)c4-c4cc3ccc4O)[C@H](O)c3ccc(c(Cl)c3)Oc3cc2cc(c3O[C@@H]2O[C@H](CO)[C@@H](O)[C@H](O)[C@H]2O[C@H]2C[C@](C)(N)[C@H](O)[C@H](C)O2)Oc2ccc(cc2Cl)[C@H]1O [VCM, vancomycin]
VRSA clinical isolates; VRS1, VRSA, Michigan
  MIC: >256 µg/mL
VRSA clinical isolates; VRS2, VRSA, Pennsylvania
  MIC: 64 µg/mL (≈ 44.2 µM)
VRSA clinical isolates; VRS3, VRSA, New York
  MIC: >32 µg/mL
VRSA clinical isolates; VRS4, VRSA, New York
  MIC: >32 µg/mL
VRSA clinical isolates; VRS5, VRSA, Michigan
  MIC: >256 µg/mL
VRSA clinical isolates; VRS6, VRSA, Michigan
  MIC: >256 µg/mL
VRSA clinical isolates; VRS7, VRSA, Michigan
  MIC: >256 µg/mL
[1]; Staphylococcus aureus, 99/3700-W, VI-MRSA, The United Kingdom
  MIC: 2 µg/mL (≈ 1.38 µM)
[1]; Staphylococcus aureus, 99/3759-V, VI-MRSA, The United Kingdom
  MIC: 2 µg/mL (≈ 1.38 µM)
[1]; Staphylococcus aureus, 28160, VI-MRSA, South African Republic
  MIC: 4 µg/mL (≈ 2.76 µM)
[1]; Staphylococcus aureus, 98141, VI-MRSA, France
  MIC: 2 µg/mL (≈ 1.38 µM)
[1]; Staphylococcus aureus, A7 (JCSC4842), VI-MRSA, Taiwan
  MIC: 3 µg/mL (≈ 2.07 µM)
[1]; Staphylococcus aureus, AMC11094, VI-MRSA, Korea
  MIC: 4 µg/mL (≈ 2.76 µM)
[1]; Staphylococcus aureus, B7 (JCSC4852), VI-MRSA, Taiwan
  MIC: 4 µg/mL (≈ 2.76 µM)
[1]; Staphylococcus aureus, BR1, VI-MRSA, Brazil
  MIC: 2 µg/mL (≈ 1.38 µM)
[1]; Staphylococcus aureus, BR2, VI-MRSA, Brazil
  MIC: 4 µg/mL (≈ 2.76 µM)
[1]; Staphylococcus aureus, BR3, VI-MRSA, Brazil
  MIC: 8 µg/mL (≈ 5.52 µM)
[1]; Staphylococcus aureus, BR4, VI-MRSA, Brazil
  MIC: 8 µg/mL (≈ 5.52 µM)
[1]; Staphylococcus aureus, BR5, VI-MRSA, Brazil
  MIC: 8 µg/mL (≈ 5.52 µM)
[1]; Staphylococcus aureus, HIP06297, VI-MRSA, America
  MIC: 4 µg/mL (≈ 2.76 µM)
[1]; Staphylococcus aureus, HIP06854, VI-MRSA, America
  MIC: 4 µg/mL (≈ 2.76 µM)
[1]; Staphylococcus aureus, HIP07920, VI-MRSA, America
  MIC: 2 µg/mL (≈ 1.38 µM)
[1]; Staphylococcus aureus, HIP07930, VI-MRSA, America
  MIC: 4 µg/mL (≈ 2.76 µM)
[1]; Staphylococcus aureus, HIP08926, VI-MRSA, America
  MIC: 4 µg/mL (≈ 2.76 µM)
[1]; Staphylococcus aureus, HIP09143, VI-MRSA, America
  MIC: 4 µg/mL (≈ 2.76 µM)
[1]; Staphylococcus aureus, HIP09313, VI-MRSA, America
  MIC: 4 µg/mL (≈ 2.76 µM)
[1]; Staphylococcus aureus, HIP09433, VI-MRSA, America
  MIC: 2 µg/mL (≈ 1.38 µM)
[1]; Staphylococcus aureus, HIP09662, VI-MRSA, America
  MIC: 4 µg/mL (≈ 2.76 µM)
[1]; Staphylococcus aureus, HIP09735, VI-MRSA, America
  MIC: 4 µg/mL (≈ 2.76 µM)
[1]; Staphylococcus aureus, HIP09737, VI-MSSA, America
  MIC: 4 µg/mL (≈ 2.76 µM)
[1]; Staphylococcus aureus, HIP09740, VI-MRSA, America
  MIC: 1 µg/mL (≈ 0.69 µM)
[1]; Staphylococcus aureus, HIP10267, VI-MRSA, America
  MIC: 4 µg/mL (≈ 2.76 µM)
[1]; Staphylococcus aureus, HIP10540, VI-MRSA, America
  MIC: 4 µg/mL (≈ 2.76 µM)
[1]; Staphylococcus aureus, HIP12864, VI-MRSA, America
  MIC: 4 µg/mL (≈ 2.76 µM)
[1]; Staphylococcus aureus, HIP13036, VI-MRSA, America
  MIC: 8 µg/mL (≈ 5.52 µM)
[1]; Staphylococcus aureus, HIP13057, VI-MRSA, America
  MIC: 4 µg/mL (≈ 2.76 µM)
[1]; Staphylococcus aureus, IL (HIP7737), VI-MRSA, America
  MIC: 4 µg/mL (≈ 2.76 µM)
[1]; Staphylococcus aureus, JCSC7193, VI-MRSA, Thailand
  MIC: 4 µg/mL (≈ 2.76 µM)
[1]; Staphylococcus aureus, JCSC7195, VI-MRSA, Thailand
  MIC: 1 µg/mL (≈ 0.69 µM)
[1]; Staphylococcus aureus, JCSC7203, VI-MRSA, Thailand
  MIC: 2 µg/mL (≈ 1.38 µM)
[1]; Staphylococcus aureus, LIM2, VI-MRSA, France
  MIC: 2 µg/mL (≈ 1.38 µM)
[1]; Staphylococcus aureus, LY-1999-01, VI-MSSA, Oman
  MIC: 4 µg/mL (≈ 2.76 µM)
[1]; Staphylococcus aureus, LY-1999-03, VI-MRSA, Oman
  MIC: 4 µg/mL (≈ 2.76 µM)
[1]; Staphylococcus aureus, MI (HIP5827), VI-MRSA, America
  MIC: 8 µg/mL (≈ 5.52 µM)
[1]; Staphylococcus aureus, MRSA / MSSA / NRS 76 / VISA, NRS76, VI-MSSA, America
  MIC: 2 µg/mL (≈ 1.38 µM)
[1]; Staphylococcus aureus, MRSA / MSSA / NRS 79 / VISA, NRS79, VI-MRSA, America
  MIC: 2 µg/mL (≈ 1.38 µM)
[1]; Staphylococcus aureus, MRSA / MSSA / NRS 118 / VISA, NRS118, VI-MRSA, America
  MIC: 8 µg/mL (≈ 5.52 µM)
[1]; Staphylococcus aureus, MRSA / MSSA / NRS 126 / VISA, NRS126, VI-MRSA, America
  MIC: 4 µg/mL (≈ 2.76 µM)
[1]; Staphylococcus aureus, Mu3, VI-MRSA, Japan
  MIC: 0.5 µg/mL (≈ 0.345 µM)
[1]; Staphylococcus aureus, Mu50, VI-MRSA, Japan
  MIC: 8 µg/mL (≈ 5.52 µM)
[1]; Staphylococcus aureus, NJ (HIP5836), VI-MRSA, America
  MIC: 8 µg/mL (≈ 5.52 µM)
[1]; Staphylococcus aureus, P1V44, VI-MSSA, Belgium
  MIC: 2 µg/mL (≈ 1.38 µM)
[1]; Staphylococcus aureus, PC, VI-MRSA, America
  MIC: 8 µg/mL (≈ 5.52 µM)
[1]; Staphylococcus aureus, SA MER-S6, VI-MSSA, France
  MIC: 4 µg/mL (≈ 2.76 µM)
[1]; Staphylococcus aureus, SA MER-S12, VI-MSSA, France
  MIC: 4 µg/mL (≈ 2.76 µM)
[1]; Staphylococcus aureus, SA MER-S20, VI-MSSA, France
  MIC: 4 µg/mL (≈ 2.76 µM)
